Measured values reported in US9918941B2 (Eastbrand Holding GMBH, priority 2012, dated 2018).

Legend:
gastric mucus = test: Gastric tolerance, Pisanti-Volterra method; type: in vivo, Sprague Dawley rats; settings: rats, score 0 (normal stomach) to 6 (perforated ulcer)
From the text: The following scores were attributed according to the type and intensity of the injury observed: • Score 0=Normal stomach without injury; 1=Haemorrhaging points; 2=Haemorrhaging diffusion (reddening of the surface); 3=1-5 small ulcers (<3 mm); 4=Large number of small ulcers or a deep isolated ulceration; 5=Many ulcers of various size; 6=Perforated ulcer. • The degree of gastric injury is defined by the average score; the higher score corresponds to a greater gastric injury

[1] = system: Carrageenin-induced edema in the paw; test: Anti-inflammatory activity, Carrageenin-induced edema in the paw (Winter, Risley and Nuss); type: in vivo, Sprague Dawley rats; settings: rats, ± e.s.
[2] = system: acute chemical visceral pain model; test: Analgesic activity, abdominal contraction test with acetic acid (Writhing Test); type: in vivo, Swiss rats; settings: inhibition of number of contractions vs control animals
Protocol: Adult male Swiss rats were used in the assay, 28-30 g in weight, 10 animals per treatment group or for each assessed dose level. 1-The analgesic activity/action was assessed by using an acute chemical visceral pain model, the abdominal contraction test with acetic acid (Writhing Test) (Miranda, H; Puig, […]. Synergism between paracetamol and nonsteroidal anti-inflammatory drugs in experimental acute pain. Pain (12) 2006. 22-28) ([…]. The Type of Analgesic-Receptor interaction involved in certain analgesic assays. European Journal of Pharmacology 16 (1971) 63-66. North Holland Publishing Company) […] The antinociceptive activity was expressed as the inhibition percentage of the number of contractions observed in the animals in the groups treated at each of the assessed dose levels, with respect to the number of contractions in the study control animals.

[3] = Degradation / related substances (USP analytical method); type: physicochemical; settings: reaction mixture up to 60° C. and gelation, finished microcapsules
From the text: No related substances derived from the degradation of diclofenac mentioned in USP were detected in HPSC.
Only 2% were found above 1000, and only 1% under 250 micron.

In the case of `O=C(O)Cc1ccccc1Nc1c(Cl)cccc1Cl` [diclofenac potassium], the “Degree of Gastric Injury Avg. score ± e.s.” value (gastric mucus; Dose: 12.5 mg/kg) is reported as 2.64 ± 0.59, the “Degree of Gastric Injury Avg. score ± e.s.” value (gastric mucus; Dose: 25.0 mg/kg) is reported as 3.81 ± 0.35 and the “Degree of Gastric Injury Avg Score ± e.s.” value (gastric mucus; Dose: 50.0 mg/kg) is reported as 4.80 ± 0.50. For the same compound, the “% Inflammation inhibition 1st hour” value ([1]; Dose: 12.5 mg/kg) was 37.2 ± 12.2%, the “% Inflammation inhibition 2nd hour” value ([1]; Dose: 12.5 mg/kg) was 42.5 ± 13.1% and the “% Inflammation inhibition 3rd hour” value ([1]; Dose: 12.5 mg/kg) was 28.3 ± 9.5%. The “% Inflammation inhibition 4th hour” value ([1]; Dose: 12.5 mg/kg) was 30.6 ± 9.8%, the “% Inflammation inhibition 5th hour” value ([1]; Dose: 12.5 mg/kg) was 29.7 ± 10.8% and the “% Inflammation inhibition 2nd hour” value ([1]; Dose: 25.0 mg/kg) was 36.4 ± 8.49%. The “% Inflammation inhibition 3rd hour” value ([1]; Dose: 25.0 mg/kg) was 28.0 ± 13.56%, the “% Inflammation inhibition 4th hour” value ([1]; Dose: 25.0 mg/kg) was 23.3 ± 6.66% and the “% Inflammation inhibition 5th hour” value ([1]; Dose: 25.0 mg/kg) was 15.7 ± 5.61%. The “% Inflammation inhibition 2nd hour” value ([1]; Dose: 50.0 mg/kg) was 45.8 ± 8.3%, the “% Inflammation inhibition 3rd hour” value ([1]; Dose: 50.0 mg/kg) was 41.4 ± 6.9% and the “% Inflammation inhibition 4th hour” value ([1]; Dose: 50.0 mg/kg) was 47.2 ± 5.2%. For the same compound, the “% Inflammation inhibition 5th hour” value ([1]; Dose: 50.0 mg/kg) was 43.2 ± 4.5%, the “Analgesic Activity (% Inhibition) Avg. Score ± e.s.” value ([2]; Dose: 12.5 mg/kg) was 53.23 ± 5.53% and the “Analgesic Activity (% Inhibition) Avg. Score ± e.s.” value ([2]; Dose: 25.0 mg/kg) was 67.26 ± 4.62%.

For `O=C(O)Cc1ccccc1Nc1c(Cl)cccc1Cl` [diclofenac, 2-((2,6 dichlorophenyl)amino)phenyl acetic (diclofenac) acid], the “degradation / related substances” value [3] was “not degraded”.
